Source: patent publication US20240327372A1, “PREPARATION OF PHENE[…] […] STEREOISOMERS THEREOF AND PRECURSORS THEREOF” (priority 2022, published 2024)

How the values were obtained:
[1] = biological target: hNav1.5 (Homo sapiens (Human), UniProt Q14524); test: hNav1.5 Sodium Channel Assay (peak), Qube APC; type: cell-based; conditions: Nav1.5, Antagonist mode, test compound
Protocol: Where presented, IC50 values were determined by a non-linear, least squares regression analysis.
Recombinant HEK-293 cells stably transfected with human Nav1.5 cDNA, recombinant HEK293 cell line expressing the human Cav1.2 (L-type voltage gated calcium channel, hCav1.2 α1C/β2a/α2δ1, and recombinant CHO-K1 cells stably transfected with human hERG cDNA were used separately in each of these assays.
hNav1.5 Sodium Channel Assay—Qube APC Onset and steady state block of peak Nav1.5 current is measured using a pulse pattern, repeated every 5 sec, consisting of a hyperpolarizing pulse to −120 mV for a 200 ms duration, depolarization to −15 mV amplitude for a 40 ms duration, followed by step to 40 mV for 200 ms and finally a 100 ms ramp (1.2 V/s) to a holding potential of −80 mV. Peak current is measured during the step to −15 mV.

[2] = biological target: hKv4.3/hKChIP2 (Homo sapiens (Human), UniProt Q9UK17); test: hKv4.3/hKChIP2 Potassium Channel Assay, Qube APC; type: cell-based; conditions: Kc4.3/ChIP2, Antagonist mode, test compound
Protocol: Electrophysiological assays were conducted to profile three compounds ((R)-methylone, (S)-methylone, or racemic methylone) for activities on the ion channel targets specified below using the Qube electrophysiological platform. Where presented, IC50 values were determined by a non-linear, least squares regression analysis. Reference standards were run as an integral part of each assay to ensure the validity of the results obtained.
Ion Channels tested were Eurofins Panel Part Number: CPROFullQB2DR Voltage-Gated Sodium: HEK-Nav1.5 (Peak), HEK-Nav1.5 (Late, Antagonist) Voltage-Gated Potassium: HEK-Kv4.3/KChIP2, CHO-hERG, CHO-KCNQ1/minK Voltage-Gated Calcium: HEK-Cav1.2 Inward-Rectifying Voltage-Gated Potassium: HEK-Kir2.1.
hKv4.3/hKChIP2 Potassium Channel Assay—Qube APC After whole cell configuration is achieved, the cells are held at −80 mV. Onset and steady state block of hKv4.3 current is measured using a pulse pattern from −80 mV to 40 mV amplitude for a 110 ms duration, and finally a 100 ms ramp (1.2 V/s) to −80 mV. This paradigm is delivered once every 5 s to monitor the current amplitude.

[3] = biological target: DAT (Rattus norvegicus (Rat), UniProt P23977); test: [3H]Dopamine uptake inhibition in rat brain synaptosomes; type: biochemical; conditions: DA
Protocol: Materials used were: Neurotransmitters [3H]5-HT (PerkinElmer, NET498001MC) [^3H]Dopamine (PerkinElmer, NET673250UC) [^3H]Norepinephrine (PerkinElmer, NET377250UC); Test Compounds Racemic methylone HCl (Merck, M-140); (R)-methylone HCl (Pisgah Labs); (S)-methylone HCl (Pisgah Labs); Reference Compounds Citalopram (Tocris Bioscience 1427). JHW007 (Tocris Bioscience 4351). Nomifensine (Abcam ab146004).
Synaptosomes were prepared from Sprague Dawley (200-250 g) rat brain regions (hippocampus for NE, striatum for DA and midbrain for 5-HT) using standard protocols. Tissues were dissected, added to sucrose buffer (0.32 M), homogenized with a dounce-homogenizer and centrifuged at 100×g to remove cells and debris. Supernatant was collected and centrifuged 17,000×g for 10 minutes at 4° C. to pellet the synaptosomes. The pellet was resuspended in fresh assay buffer.
Uptake assays were carried out in 96-well plates in a final volume of 250 μL per well. To each well was added 150 μL synaptosomes, 50 μL test, non-specific compound or buffer alone. The plate was incubated at 30° C. for 30 minutes with gentle agitation. 50 μL radiolabeled neurotransmitter in buffer was then added to each well to initiate the uptake. The plate was incubated at 30° C. for a further 5 minutes with gentle agitation. The incubation was stopped by vacuum filtration onto presoaked GF/C filters using a 96-well FilterMate™ harvester, followed by 3 washes with ice-cold wash buffer. Filters were then dried under a warm air stream, sealed in polyethylene, scintillation cocktail added, and the radioactivity counted in a Wallac® TriLux 1450 MicroBeta counter.
For each concentration of drug, non-specific uptake was subtracted from total uptake to give specific uptake. Data was fitted using the non-linear curve fitting routines in Prism® (Graphpad Software Inc) to determine IC50.

[4] = biological target: serotonin transporter (SERT) (Rattus norvegicus (Rat), UniProt P31652); test: Competition radioligand binding, [3H]Citalopram, rat brain membranes; conditions: for IC50 / Ki: 5-HT transporter; for Ki: Cheng-Prusoff
Description: Rat brain (Sprague Dawley, 200-250 g) synaptosomes were isolated from midbrain and hindbrain for serotonin transporter assays, striatum for dopamine transporter assays, and hippocampus plus overlying occipital cortex for norepinephrine transporter assays. Radioligands used were: [^3H]Citalopram 81.4 Ci/mmol (PerkinElmer NET1039250UC; Lot No. 2960876). [^3H]WIN35428 82.8 Ci/mmol (PerkinElmer NET1033250UC; Lot No. 2891473). [^3H]Nisoxetine 79.2 Ci/mmol (PerkinElmer NET1084250UC; Lot No. 2970324). Non-specific compounds used were: Citalopram (Tocris Bioscience 1427). JHW007 (Tocris Bioscience 4351). Nomifensine (Abcam ab146004). Test Compounds for the study were: racemic methylone HCl; (R)-methylone HCl; (S)-methylone HCl.
For membrane preparations, rat brains were dissected, tissue was added to ice-cold lysis buffer (50 mM Tris HCl; 5 mM MgCl2; 5 mM EDTA; protease inhibitor cocktail) and homogenized. The homogenate was centrifuged at 100×g for 2 minutes and the supernatant divided into polypropylene Eppendorf tubes. The supernatants were centrifuged at 17,000×g for 10 minutes at 4° C. to re-pellet the cell lysate. The pellet was resuspended in fresh wash buffer (50 mM Tris-HCl; 5 mM MgCl2; 5 mM EDTA) and centrifuged a third time at 17,000×g for 10 minutes at 4° C. The pellet was resuspended in wash buffer containing 10% sucrose as a cryoprotectant, divided into aliquots (0.3 mL) and stored at −80° C. A sample of the homogenate was analyzed for protein content using the MERCK® BCA assay. On the day of the assay, the membrane preparation was thawed and the pellet resuspended in final assay buffer.
Competition binding assays were carried out in 96-well polypropylene plates in a final volume of 250 μL per well. To each well was added 150 μL membranes, 50 μL of test compound, non-specific compound or buffer, and 50 μL radioligand solution in buffer. The plate was incubated at 30° C. for 90 minutes with gentle agitation. The incubation was stopped by vacuum filtration onto presoaked (wash buffer with PEI) GF/C filters using a 96-well FILTERMATE™ harvester, followed by 5 washes with ice-cold wash buffer. Filters were then dried under a warm air stream, sealed in polyethylene, scintillation cocktail added, and the radioactivity counted in a WALLAC® TriLux 1450 MicroBeta counter. For each concentration of drug, non-specific binding was subtracted from total binding to give specific binding. Data was fitted using the non-linear curve fitting routines in PRISM® (Graphpad Software Inc) to determine IC50. Ki was subsequently calculated using the ChengPrusoff equation.

[5] = system: NET; test: NE release study; type: biochemical

Chain of hKv4.3/hKChIP2 (Q9UK17 whole entry, looked up): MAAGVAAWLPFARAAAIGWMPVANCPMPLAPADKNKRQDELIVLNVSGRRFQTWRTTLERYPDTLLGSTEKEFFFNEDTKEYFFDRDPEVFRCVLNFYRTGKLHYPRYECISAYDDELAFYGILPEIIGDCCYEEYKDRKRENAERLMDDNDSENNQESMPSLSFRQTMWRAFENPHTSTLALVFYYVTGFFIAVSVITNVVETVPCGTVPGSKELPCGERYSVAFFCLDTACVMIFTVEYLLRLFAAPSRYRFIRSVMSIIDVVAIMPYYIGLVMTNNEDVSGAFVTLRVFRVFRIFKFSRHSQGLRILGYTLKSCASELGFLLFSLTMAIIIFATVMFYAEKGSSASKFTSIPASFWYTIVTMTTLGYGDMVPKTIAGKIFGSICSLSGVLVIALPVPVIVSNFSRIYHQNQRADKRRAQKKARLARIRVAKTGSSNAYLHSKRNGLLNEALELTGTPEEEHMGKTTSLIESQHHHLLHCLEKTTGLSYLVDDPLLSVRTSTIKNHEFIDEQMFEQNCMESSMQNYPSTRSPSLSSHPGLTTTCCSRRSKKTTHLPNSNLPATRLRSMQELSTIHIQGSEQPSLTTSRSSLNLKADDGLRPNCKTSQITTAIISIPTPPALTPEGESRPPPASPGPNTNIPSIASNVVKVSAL
Chain of hKv4.3/hKChIP2 (Q9NS61 whole entry partner, looked up): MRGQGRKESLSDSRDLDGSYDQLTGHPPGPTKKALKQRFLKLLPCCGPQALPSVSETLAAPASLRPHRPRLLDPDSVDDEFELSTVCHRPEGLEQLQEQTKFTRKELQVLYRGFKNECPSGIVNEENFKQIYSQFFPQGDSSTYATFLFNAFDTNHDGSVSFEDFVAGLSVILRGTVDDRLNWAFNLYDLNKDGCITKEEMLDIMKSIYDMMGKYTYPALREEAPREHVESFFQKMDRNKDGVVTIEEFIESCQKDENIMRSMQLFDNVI

SMILES	Estimated IC50 [1]	Estimated IC50 [2]	IC50 [3]	IC50 [4]	Ki [4]	Potency relative to racemic methylone ([4]; SERT binding)	EC50 [5]
CN[C@H](C)C(=O)c1ccc2c(c1)OCO2 [(R)-methylone]	N/C (N/C indicates observed mean inhibition was <25%)	N/C (N/C indicates observed mean inhibition was <25%)	3.44 µM	34.7 µM	21.1 µM	approximately three-fold less potent	0.191 µM
CN[C@@H](C)C(=O)c1ccc2c(c1)OCO2 [(S)-methylone]	N/C (N/C indicates observed mean inhibition was <25%)	N/C (N/C indicates observed mean inhibition was <25%)	0.634 µM	6.52 µM	3.95 µM	–	0.76 µM
